Data taken from patent US11752140B2, “Compositions comprising substituted benzofuroquinolizine and psychoactive drug” (VETCARE OY, priority 2016, dated 2023).

How the values were obtained:
[1] = Plasma concentrations of butorphanol and midazolam in dogs after IM administration of composition with or without MK-467; details: for Peak plasma concentration / Time at which peak plasma concentration was reached from the IM administration: IM
Protocol: Plasma Concentrations of Butorphanol and Midazolam in Dogs after IM Administration of a Composition Comprising MK-467, Butorphanol, Midazolam and Medetomidine, Compared with Composition without MK-467
A liquid aqueous composition comprising MK-467, butorphanol tartrate, midazolam and medetomidine was administered to a dog intramuscularly (IM) to provide a dosage of MK-467 500 μg/kg, butorphanol 100 μg/kg, midazolam 200 μg/kg and medetomidine 20 μg/kg.
Five purpose-bred, adult beagles were used for this study.
Study design: A prospective, randomized, experimental cross-over study.
Each dog was treated for two times with a 14-day wash-out period:
Treatment 1. medetomidine (20 μg/kg)+butorphanol (100 μg/kg)+midazolam (0.2 mg/kg)
Treatment 2. medetomidine (20 μg/kg)+MK-467 (MK) (500 μg/kg)+butorphanol (100 μg/kg)+midazolam (0.2 mg/kg).
For treatment 1. 1 mL of medetomidine (Dorbene 1 mg/mL) was diluted with 1 mL of saline. For treatment 2. 25 mg of MK-467 was mixed with 1 mL of medetomidine, and 1 mL of saline was added. The mixture, butorphanol (Torpudor 10 mg/mL) and midazolam (Midazolam Hameln 5 mg/mL) were aspirated into a single syringe. The end volume of the injectable in both treatments was 0.09 mL/kg.
Dog was positioned laterally and the drugs were injected IM into the epaxial muscle. Central venous blood was sampled into EDTA-tubes at 0, 3, 6, 10, 15, 20, 25, 30, 40, 50, 60 and 90 minutes after drug administration. The plasma concentrations were analyzed with LC/MS/MS for plasma concentrations of dexmedetomidine, midazolam and butorphanol.

dogs [2] = details: medetomidine 20 μg/kg IM or 10 μg/kg IV alone (Rolfe 2012); cited from earlier work
dogs [3] = details: MK-467 250, 500, 750 μg/kg with dexmedetomidine 10 μg/kg IV (Restitutti 2011); cited from earlier work
[4] = in the presence of MK-467 500 μg/kg, with medetomidine 20 μg/kg, butorphanol 100 μg/kg, midazolam 200 μg/kg in the same syringe
[5] = without MK-467, medetomidine, butorphanol, midazolam in the same syringe
[6] = parenteral extravascular administration, composition with MK-467

SMILES | Peak plasma concentration [1, 4] [ng/mL] | Time at which peak plasma concentration was reached from the IM administration ([1]; with MK-467) [min] | Time at which peak plasma concentration was reached from the IM administration ([1]; without MK-467) [min] | Peak plasma concentration [1, 5] [ng/mL] | Time at which maximum plasma concentration was reached [1, 6] [min] | Time at which maximum plasma concentration was reached ([1]; without MK-467) [min] | Heart rate, Pvo(2) and cardiac index compared with baseline (dogs [2]) | MAP, SVR and oxygen extraction ratio compared with baseline (dogs [2]) | Effect on bispectral index (BIS) values (dogs [3])
Oc1ccc2c(c1)[C@@]13CCCC[C@@]1(O)[C@@H](C2)N(CC1CCC1)CC3 [butorphanol] | 17 | ≤ 10 | ≤ 30 | 11 | 10 | 30 |  |  | 
Cc1cccc(C(C)c2cnc[nH]2)c1C (racemic) [medetomidine, (RS)-4-[1-(2,3-dimethylphenyl)ethyl]-3H-imidazole] |  |  |  |  |  |  | significantly lower | significantly higher | 
Cc1cccc([C@H](C)c2cnc[nH]2)c1C [Dexmedetomidine, (S)-4-[1-(2,3-Dimethylphenyl)ethyl]-3H-imidazole] |  |  |  |  |  |  |  |  | decreased BIS-values
Cc1ncc2n1-c1ccc(Cl)cc1C(c1ccccc1F)=NC2 [midazolam] | 133 | ≤ 5 | ≤ 30 | 71 | 5 | 20 |  |  | 
